Assay results as given in PMC6284401 (Journal of peptide science : an official publication of the …, 2018).

Columns and labels:
p-HER2 = assay: Western blot of total and phosphorylated HER2, BT-474; format: cell-based; details: BT-474 cells, 1.5 μM, 36 h
[1] = human serum, HPLC AUC vs time
[2] = mouse, in vivo
MCF-7 cells = assay: Confocal microscopy binding, MCF-7 cells; format: cell-based; details: 0.5 μM, 30 min
[3] = cited from earlier work

Compound: N=C(N)NCCC[C@H]1NC(=O)C[C@H](c2cccc3ccccc23)NC(=O)[C@@H](Cc2ccccc2)NC(=O)[C@@H](CC(=O)O)NC(=O)[C@H]2CCCN2C(=O)[C@@H]2CCCN2C(=O)[C@@H](CCCNC(=N)N)NC(=O)C[C@H](c2cccc3ccccc23)NC(=O)[C@@H](Cc2ccccc2)NC(=O)[C@@H](CC(=O)O)NC1=O [compound 32, Cyclo(Ppdf-(R)Anapa-rdf-(R)Anapa-r]
- Level of p-HER2 (Western blot) (p-HER2): decreased the level of p-HER2
- Total-HER2 protein levels (Western blot) (p-HER2): did not show any significant effect
- Time stable in serum [1]: 48 h
- Compound detected after 12 h compared to the 15 min [2]: ~70%

Compound: N=C(N)NCCC[C@@H]1NC(=O)[C@H]2CCCN2C(=O)[C@@H]2CCCN2C(=O)[C@H](CCCCNC(=O)c2ccc3c(c2)C2(OC3=O)c3ccc(O)cc3Oc3cc(O)ccc32)NC(=O)C[C@H](c2cccc3ccccc23)NC(=O)[C@H](Cc2ccccc2)NC(=O)[C@H](CC(=O)O)NC(=O)[C@H](CC(=O)O)NC(=O)[C@H](Cc2ccccc2)NC(=O)C[C@H](c2cccc3ccccc23)NC1=O [compound 44, Cyclo(PpR-(R)Anapa-FDDF-(R)Anapa-K-(6-FAM)]
- Binding to cells by confocal microscopy (green fluorescence) (MCF-7 cells): does not bind significantly

Compound: Cyclo(PpR-((R) Anapa)FDDF-((R) Anapa)R [compound 18]
- Stability in serum in vitro [3]: more than 48 h
